Experimental data as given in PubChem BioAssay AID1963845 (Molecular Pharmacology Branch, DTP, NCI, 2024).
pIC50: −log10 of the molar value.

Test system: 429239-143-T-J1-PDC complex spheroid viability
Test: Anticancer human tumor 429239-143-T-J1-PDC patient-derived small cell lung carcinoma cell line growth inhibition [POLQ]
Conditions: for pIC50: curve of first compound; for viability, T/C: stronger effect = lower value; active = viability on the fitted dose curve at most 10% of control; inactive = the rest
How it was run: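 Three-cell-type spheroids modelling solid tumor plus stroma served as the readout system; POL inhibitors were tested individually and in combination, concentration ranges set by clinical Cmax where known.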

[1] = second compound 0.0316 µM, first compound 0.0316 µM
[2] = second compound 0.0316 µM, first compound 0.1 µM
[3] = second compound 0.0316 µM, first compound 0.316 µM
[4] = second compound 0.0316 µM, first compound 1 µM
[5] = second compound 0.0316 µM, first compound 3.16 µM
[6] = second compound 0.0316 µM, first compound 10 µM
[7] = second compound 0.1 µM, first compound 0.0316 µM
[8] = second compound 0.1 µM, first compound 0.1 µM
[9] = second compound 0.1 µM, first compound 0.316 µM
[10] = second compound 0.1 µM, first compound 1 µM
[11] = second compound 0.1 µM, first compound 3.16 µM
[12] = second compound 0.1 µM, first compound 10 µM
[13] = second compound 0.316 µM, first compound 0.0316 µM
[14] = second compound 0.316 µM, first compound 0.1 µM
[15] = second compound 0.316 µM, first compound 0.316 µM
[16] = second compound 0.316 µM, first compound 1 µM
[17] = second compound 0.316 µM, first compound 3.16 µM
[18] = second compound 0.316 µM, first compound 10 µM
[19] = second compound 1 µM, first compound 0.0316 µM
[20] = second compound 1 µM, first compound 0.1 µM
[21] = second compound 1 µM, first compound 0.316 µM
[22] = second compound 1 µM, first compound 1 µM
[23] = second compound 1 µM, first compound 3.16 µM
[24] = second compound 1 µM, first compound 10 µM
[25] = second compound 3.16 µM, first compound 0.0316 µM
[26] = second compound 3.16 µM, first compound 0.1 µM
[27] = second compound 3.16 µM, first compound 0.316 µM
[28] = second compound 3.16 µM, first compound 1 µM
[29] = second compound 3.16 µM, first compound 3.16 µM
[30] = second compound 3.16 µM, first compound 10 µM
[31] = second compound 10 µM, first compound 0.0316 µM
[32] = second compound 10 µM, first compound 0.1 µM
[33] = second compound 10 µM, first compound 0.316 µM
[34] = second compound 10 µM, first compound 1 µM
[35] = second compound 10 µM, first compound 3.16 µM
[36] = second compound 10 µM, first compound 10 µM
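Note: luminescence signal used as surrogate measure of viable cells; spheroids exposed to compounds for seven days before readout.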
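Throughout, for viability, T/C: 100% = DMSO vehicle control viability as luminescence relative to vehicle.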

COc1cc2cc(C(=O)CCC(=O)O)sc2cc1OC + COC1C(OC(N)=O)C(O)C(Oc2ccc3c(O)c(NC(=O)c4ccc(O)c(CC=C(C)C)c4)c(=O)oc3c2C)OC1(C)C
< 5.00: pIC50 (second compound 0.0316 µM) | pIC50 (second compound 0.1 µM) | pIC50 (second compound 0.316 µM) | pIC50 (second compound 1 µM) | pIC50 (second compound 3.16 µM) | pIC50 (second compound 10 µM)
inactive: viability, T/C [1] 113% | viability, T/C [2] 95.9% | viability, T/C [3] 112% | viability, T/C [4] 105% | viability, T/C [5] 92.1% | viability, T/C [6] 92.4% | viability, T/C [7] 116% | viability, T/C [8] 104% | viability, T/C [9] 93.7% | viability, T/C [10] 100% | viability, T/C [11] 91.2% | viability, T/C [12] 92.6% | viability, T/C [13] 103% | viability, T/C [14] 99.3% | viability, T/C [15] 92.6% | viability, T/C [16] 107% | viability, T/C [17] 95.1% | viability, T/C [18] 90.2% | viability, T/C [19] 96.1% | viability, T/C [20] 91.1% | viability, T/C [21] 108% | viability, T/C [22] 90.9% | viability, T/C [23] 90.6% | viability, T/C [24] 102% | viability, T/C [25] 94.7% | viability, T/C [26] 112% | viability, T/C [27] 103% | viability, T/C [28] 89.4% | viability, T/C [29] 96% | viability, T/C [30] 101% | viability, T/C [31] 95.9% | viability, T/C [32] 91.7% | viability, T/C [33] 119% | viability, T/C [34] 96.6% | viability, T/C [35] 94.3% | viability, T/C [36] 95.7%

C=CC(=O)N1CCN(c2nc(=O)n(-c3c(C)ccnc3C(C)C)c3nc(-c4c(O)cccc4F)c(F)cc23)C(C)C1 (stereo unspecified) + COC1C(OC(N)=O)C(O)C(Oc2ccc3c(O)c(NC(=O)c4ccc(O)c(CC=C(C)C)c4)c(=O)oc3c2C)OC1(C)C
inactive: viability, T/C [1] 107% | viability, T/C [2] 89.5% | viability, T/C [3] 94% | viability, T/C [4] 94.6% | viability, T/C [5] 107% | viability, T/C [6] 112% | viability, T/C [7] 104% | viability, T/C [8] 94.3% | viability, T/C [9] 93.6% | viability, T/C [10] 104% | viability, T/C [11] 87.9% | viability, T/C [12] 97.7% | viability, T/C [13] 96.7% | viability, T/C [14] 90.8% | viability, T/C [15] 91.7% | viability, T/C [16] 91.7% | viability, T/C [17] 103% | viability, T/C [18] 101% | viability, T/C [19] 98.4% | viability, T/C [20] 94.6% | viability, T/C [21] 99.8% | viability, T/C [22] 96.6% | viability, T/C [23] 103% | viability, T/C [24] 101% | viability, T/C [25] 94.9% | viability, T/C [26] 107% | viability, T/C [27] 95.3% | viability, T/C [28] 95.3% | viability, T/C [29] 98.7% | viability, T/C [30] 103% | viability, T/C [31] 79.5% | viability, T/C [32] 84.8% | viability, T/C [33] 91.5% | viability, T/C [34] 87.7% | viability, T/C [35] 104% | viability, T/C [36] 103%
< 5.00: pIC50 (second compound 0.0316 µM) | pIC50 (second compound 0.1 µM) | pIC50 (second compound 0.316 µM) | pIC50 (second compound 1 µM) | pIC50 (second compound 3.16 µM) | pIC50 (second compound 10 µM)

O=C(Nc1ccc(O)c(NS(=O)(=O)c2ccc(F)cc2)c1)c1ccc(-c2ccccc2)cc1 + COC1C(OC(N)=O)C(O)C(Oc2ccc3c(O)c(NC(=O)c4ccc(O)c(CC=C(C)C)c4)c(=O)oc3c2C)OC1(C)C
inactive: viability, T/C [1] 110% | viability, T/C [2] 97.1% | viability, T/C [3] 108% | viability, T/C [4] 105% | viability, T/C [5] 99% | viability, T/C [6] 66.7% | viability, T/C [7] 90.2% | viability, T/C [8] 92.9% | viability, T/C [9] 99.6% | viability, T/C [10] 121% | viability, T/C [11] 113% | viability, T/C [12] 61.3% | viability, T/C [13] 101% | viability, T/C [14] 83.7% | viability, T/C [15] 95.2% | viability, T/C [16] 105% | viability, T/C [17] 106% | viability, T/C [18] 64.4% | viability, T/C [19] 104% | viability, T/C [20] 92.8% | viability, T/C [21] 93% | viability, T/C [22] 90.8% | viability, T/C [23] 107% | viability, T/C [24] 59.4% | viability, T/C [25] 98.9% | viability, T/C [26] 90% | viability, T/C [27] 100% | viability, T/C [28] 98.7% | viability, T/C [29] 93.3% | viability, T/C [30] 76.9% | viability, T/C [31] 99.1% | viability, T/C [32] 85.9% | viability, T/C [33] 99% | viability, T/C [34] 102% | viability, T/C [35] 113% | viability, T/C [36] 68.6%
< 5.00: pIC50 (second compound 0.0316 µM) | pIC50 (second compound 0.1 µM) | pIC50 (second compound 0.316 µM) | pIC50 (second compound 1 µM) | pIC50 (second compound 3.16 µM) | pIC50 (second compound 10 µM)
